According to patent US9822110B2, “Sulfonamide derivative and pharmaceutical use thereof” (EA Pharma Co., Ltd., priority 2013, dated 2017):
pIC50: −log10 of the molar value.

molecular target: T1, MAdCAM-1/α4β7 integrin (Homo sapiens, UniProt P13612+P26010); assay: Evaluation test (1) for MAdCAM-1/α4β7 integrin binding inhibitory activity in the presence of serum (RPMI-8866 cell binding to MAdCAM-1/Fc); format: cell-based; conditions: RPMI-8866 cells, recombinant mouse MAdCAM-1/Fc, human serum at final concentration of 50%; read-out: α4β7 Serum Activity rank when α4β7 serum was added
T1 construct: a human B-cell line known to express α4β7 integrin; endogenous in cells; host or cells: RPMI-8866 (human B-cell line)
T1 sequence (P13612 34-1032): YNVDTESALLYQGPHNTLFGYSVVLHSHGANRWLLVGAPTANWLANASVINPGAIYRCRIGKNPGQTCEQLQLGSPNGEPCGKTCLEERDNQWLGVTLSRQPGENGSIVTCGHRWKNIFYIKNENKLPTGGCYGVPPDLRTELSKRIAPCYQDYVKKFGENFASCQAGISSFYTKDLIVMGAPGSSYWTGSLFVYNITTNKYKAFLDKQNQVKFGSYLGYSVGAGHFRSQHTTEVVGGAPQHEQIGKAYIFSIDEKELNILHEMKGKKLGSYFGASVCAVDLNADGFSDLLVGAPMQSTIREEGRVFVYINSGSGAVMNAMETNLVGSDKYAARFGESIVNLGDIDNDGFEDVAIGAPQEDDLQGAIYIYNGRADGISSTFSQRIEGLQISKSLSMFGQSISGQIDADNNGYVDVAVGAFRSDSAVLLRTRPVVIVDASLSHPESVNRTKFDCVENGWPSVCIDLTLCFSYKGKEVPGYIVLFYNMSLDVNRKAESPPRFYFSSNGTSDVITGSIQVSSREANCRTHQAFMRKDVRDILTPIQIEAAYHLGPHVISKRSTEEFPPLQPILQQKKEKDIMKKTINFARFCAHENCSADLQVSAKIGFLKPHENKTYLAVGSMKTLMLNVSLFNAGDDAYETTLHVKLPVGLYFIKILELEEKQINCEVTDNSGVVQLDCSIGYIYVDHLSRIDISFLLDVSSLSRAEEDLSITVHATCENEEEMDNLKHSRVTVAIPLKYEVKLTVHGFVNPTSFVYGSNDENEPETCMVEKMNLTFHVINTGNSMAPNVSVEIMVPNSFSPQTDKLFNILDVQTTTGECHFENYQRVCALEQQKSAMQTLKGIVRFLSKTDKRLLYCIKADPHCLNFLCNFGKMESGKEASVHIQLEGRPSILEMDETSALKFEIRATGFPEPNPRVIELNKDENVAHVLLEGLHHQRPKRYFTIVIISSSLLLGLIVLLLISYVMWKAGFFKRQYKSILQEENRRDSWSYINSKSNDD
T1 sequence (P26010 20-798): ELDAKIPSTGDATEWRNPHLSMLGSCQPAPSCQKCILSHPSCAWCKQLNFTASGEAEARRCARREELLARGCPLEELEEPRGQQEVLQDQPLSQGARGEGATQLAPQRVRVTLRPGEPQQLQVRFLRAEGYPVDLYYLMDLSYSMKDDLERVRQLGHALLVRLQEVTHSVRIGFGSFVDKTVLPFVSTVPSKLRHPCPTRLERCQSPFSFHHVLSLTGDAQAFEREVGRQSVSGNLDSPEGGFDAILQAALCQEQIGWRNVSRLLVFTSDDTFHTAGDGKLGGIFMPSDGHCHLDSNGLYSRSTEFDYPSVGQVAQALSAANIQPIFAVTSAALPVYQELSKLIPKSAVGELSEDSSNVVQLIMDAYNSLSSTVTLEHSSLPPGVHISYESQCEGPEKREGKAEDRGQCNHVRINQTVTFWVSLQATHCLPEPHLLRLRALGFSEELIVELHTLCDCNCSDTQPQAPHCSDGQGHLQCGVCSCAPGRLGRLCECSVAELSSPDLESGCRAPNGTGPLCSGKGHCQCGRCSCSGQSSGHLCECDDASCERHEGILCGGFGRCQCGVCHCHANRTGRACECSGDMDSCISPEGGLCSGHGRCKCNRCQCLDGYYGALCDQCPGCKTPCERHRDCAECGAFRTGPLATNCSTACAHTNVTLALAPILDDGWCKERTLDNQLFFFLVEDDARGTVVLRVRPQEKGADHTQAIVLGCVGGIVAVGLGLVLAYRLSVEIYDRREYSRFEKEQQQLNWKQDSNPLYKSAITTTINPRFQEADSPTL
Procedure: The selectivity was determined by dividing the IC50 value in the evaluation test for VCAM-1/α4β1 integrin binding inhibitory activity by the IC50 value in the evaluation test for MAdCAM-1/α4β7 integrin binding inhibitory activity. • (3) Evaluation Test (1) for MAdCAM-1/α4β7 Integrin Binding Inhibitory Activity in the Presence of Serum
The ability of test substances to inhibit the binding of RPMI-8866 cell line, a human B-cell line known to express α4β7 integrin, to MAdCAM-1 was examined.
A 96-well microtiter plate was coated overnight at 4° C. with a recombinant mouse MAdCAM-1/Fc (R&D systems) solution diluted with the buffer A (carbonate buffer, pH 9.6). After washing once with PBS, 150 μL/well of Block Ace (manufactured by Snow Brand Milk Products Co., Ltd.) was added, and it was incubated at room temperature for 2 hours. After removal, it was washed once with PBS.
100 μL of each of test substances and RPMI-8866 cells diluted with a binding buffer solution (DMEM containing 40 mM HEPES, 0.2% BSA, and 4 mM MnCl2) to various concentrations was added to the plate coated with MAdCAM-1/Fc, so that human serum was contained at a final concentration of 50%, and it was incubated at 30° C. for 15 minutes to 60 minutes. After the cells were bound to the wells, unbound cells were removed by washing with PBS. 50 μL/well of the buffer solution C (PBS containing 1.5% Triton X-100) was added to the plate to dissolve the bound RPMI-8866 cells. 30 μL of substrate buffer (Promega, CytoTox 96 Non-Radioactive Cytotoxicity Assay) was added to 30 μL of a cell lysate to allow a reaction for 30 minutes at room temperature in a dark place. 30 μL of stop solution (Promega, CytoTox 96 Non-Radioactive Cytotoxicity Assay) was added thereto to determine the absorbance at 490 nm using a plate reader. The absorbance was obtained herein by detecting the activity of lactate dehydrogenase (LDH) eluted in a supernatant of each well, that is, the absorbance is proportional to the number of RPMI-8866 cells remaining on the plate by being bound to MAdCAM-1. The test was duplicated, and the cell binding rate at various concentrations with the absorbance of the well containing no test substance being taken as 100% was determined, to calculate the concentration IC50 at which 50% of binding was inhibited.

| SMILES | pIC50 |
| --- | --- |
| COCc1ncc(-c2ccc(S(=O)(=O)Nc3cc(F)c(C(=O)N[C@@H](Cc4ccc(-n5c(=O)c6ccncc6n(C)c5=O)cn4)C(=O)O)cc3F)cc2)cn1 [Example 28, (2S)-2-[[2,5-Difluoro-4-[[4-[2-(methoxymethyl)pyrimidin-5-yl]phenyl]sulfonylamino]benzoyl]amino]-3-[5-(1-methyl-2,4-dioxo-pyrido[3,4-d]pyrimidin-3-yl)-2-pyridyl]propanoic acid] | 7.30 to 8.00 |
| Cn1c(=O)n(-c2ccc(C[C@H](NC(=O)c3cc(F)c(NS(=O)(=O)c4ccc(-c5cnc(C6CCNCC6)nc5)cc4)cc3F)C(=O)O)nc2)c(=O)c2ccncc21 [Example 26, (2S)-2-[[2,5-Difluoro-4-[[4-[2-(4-piperidyl)pyrimidin-5-yl]phenyl]sulfonylamino]benzoyl]amino]-3-[5-(1-methyl-2,4-dioxo-pyrido[3,4-d]pyrimidin-3-yl)-2-pyridyl]propanoic acid] | 7.30 to 8.00 |
| CC(C)OCc1ncc(-c2ccc(S(=O)(=O)Nc3cc(F)c(C(=O)N[C@@H](Cc4ccc(-n5c(=O)ccn(C)c5=O)cc4)C(=O)O)cc3F)cc2)cn1 [Example 42, (2S)-2-[[2,5-Difluoro-4-[[4-[2-(isopropoxymethyl)pyrimidin-5-yl]phenyl]sulfonylamino]benzoyl]amino]-3-[4-(3-methyl-2,6-dioxo-pyrimidin-1-yl)phenyl]propanoic acid] | 6.70 to 7.30 |
